Values of other authors, collected in patent publication US8512972B2, “Crystal of hypoxia inducible factor 1 alpha prolyl hydroxylase” (Akebia Therapeutics, Inc., priority 2006, dated 2013).

Tests used:
[1] = tested on: HIF protein in HT1080, PC12W and 3T3L1 cells; details: HT1080, PC12W and 3T3L1 cells in culture
HIF protein = details: administered to rats
[2] = tested on: GLUT1, heme oxygenase and nitric oxide synthase; details: neonatal rat cardiomyocytes

| expression of GLUT1, heme oxygenase and nitric oxide synthase [2] | Compound | induction of HIF protein [1] | HIF protein expression in the kidney (HIF protein) |
| --- | --- | --- | --- |
|  | N[C@@H](Cn1ccc(=O)c(O)c1)C(=O)O [L-mimosine] | induce HIF protein | induced HIF protein expression |
| induced the expression | COC(=O)CNC(=O)C(=O)OC [dimethyloxalylglycine] |  |  |
| induced the expression | CCOC(=O)c1ccc(O)c(O)c1 [ethyl-3,4 dihydroxybenzoate] | induce HIF protein |  |
